Source: US20060014704A1, “Compounds and their preparation for the treatment of Alzheimer's disease by inhibiting beta-amyloid peptide production” (priority 2004, published 2006)
“Also recorded” adds a separate entry of the source. Like-named read-outs stand apart in the source and are kept apart here.

Experiments:
[1] = test system: Aβ40 and Aβ42 production, CHO cells stably transfected with human APP695; assay: Secreted Aβ40/Aβ42 ELISA in CHO cells expressing human APP (CHO-APP cells); format: cell-based, Chinese hamster; set-up: key to Aβ42-lowering activity: Aβ42-lowering activity (“Yes”); no profound effects (“No”); non-determined (“ND”); Ginsenosides that affected cell viability are indicated as “Cytotoxic.”; settings: for Aβ42-lowering activity: summary of Tables 1-3; for inhibitory effects on Aβ40 production / inhibitory effects on Aβ42 production: ginsenosides of unprocessed ginseng, 8 hours, FIG. 10 (50 μM); for levels of Aβ42 / production of Aβ42: CHO cells expressing wild-type human APP, PPT/PT
Procedure: The CHO cells were treated with the indicated compounds (at 50 μg/ml) for 8 hrs. Aβ42 levels in the medium were measured by ELISA and normalized to intracellular full-length APP.
The potential effects of ginsenosides and their analogues in treating AD were examined. First, a number of ginsenosides were screened based on their effects on Aβ generation. The effects of various ginsenosides on Aβ (e.g., Aβ40 and Aβ42) production was initially accessed by incubating the Chinese hamster ovary (CHO) cells expressing human APP(CHO-APP cells) with each ginsenoside purified from unprocessed ginseng (known as “white ginseng”). These representative ginsenosides included Rb1, Rb2, Rc, Rd, Re, Re, Rg1 and Rg2 and differ in their side chains and sugar moieties.
After 8 hours of incubation, the media were collected and the levels of secreted Aβ40 and Aβ42 were determined by ELISA.

[2] = test system: Aβ40 and Aβ42 generation, Neuro2a-SW cells; assay: Aβ generation in Neuro2a cells expressing human Swedish mutant APP (Neuro2a-SW); format: cell-based, mouse; settings: FIG. 16; for levels of Aβ42 / production of Aβ42: Neuro2a-SW
Description: FIG. 16 depicts the effects of two major metabolites of ginsenosides, including 20(S)-protopanaxatriol (PPT) and 20(S)-protopanaxadiol (PPD) on Aβ42 generation. 20(S)-panaxatriol (PT) and 20(S)-panaxadiol (PD) are the artificial derivatives of PPT and PPPD, respectively.
Ginsenosides are metabolized by human intestinal bacteria after oral administration of ginseng extract (Kobayashi K., et al., Metabolism of ginsenoside by human intestinal bacteria [II] Ginseng Review 1994; 18: 10-14; Hasegawa H., et al., Main ginseng saponin metabolites formed by intestinal bacteria. Planta Med. 1996; 62: 453-457.). Therefore, the effects of two major metabolites of ginsenosides, including 20(S)-protopanaxatriol (PPT) and 20(S)-protopanaxadiol (PPD) on Aβ42 generation were tested. 20(S)-panaxatriol (PT) and 20(S)-panaxadiol (PD) are the artificial derivatives of PPT and PPPD, respectively.

[3] = test system: Aβ40 and Aβ42 production, CHO-APP/PS1 cells; assay: Secreted Aβ ELISA in CHO-APP/PS1 cells (wild-type PS1); format: cell-based, Chinese hamster; settings: 50 μM, 8 hrs, FIG. 11; for secretion of Aβ42: heat-processing derived ginsenosides
Procedure: The effects of Rg5 on the Aβ42 generation were much smaller as compared to Rgk351 and Rk1.
FIG. 10 depicts the effects of native ginsenosides on Aβ42 production. CHO cells stably transfected with human APP695 together with either wild-type (A, CHO-APP/PS1 cells) or ΔE9 FAD mutant (B, CHO-APP/ΔE9PS1 cells) forms of PS1 were used. Cells were treated with the indicated compounds (at 50 μM) for 8 hrs. Levels of secreted Aβ40 and Aβ42 in the medium were determined by ELISA and normalized to intracellular full-length APP. In CHO-APP/PS1 cells, average Aβ amounts in control samples were 320 pM for Aβ40 and 79 pM for Aβ42. The relative levels of Aβ and Aβ42 were normalized to values obtained from non-treated and vehicle-treated cells and are shown as % to control+s.d.). One of three representative experiments are shown.
CHO-APP/PS1 (A) and CHO-APP/ΔE9PS1 (B) cells were treated with the indicated compounds at 50 μM for 8 hrs and the levels of secreted Aβ40 and Aβ42 were determined as described in FIG. 1. […] The PS1-ΔE9 FAD mutation diminished the Aβ42 response to Rk1 treatment (B).

[4] = test system: Aβ42 production in mammalian cells; settings: Tae-Wan Kim et al.; cited from earlier work
γ-secretase = γ-secretase (Homo sapiens, UniProt P49768); assay: Cell-free γ-secretase assay (CHAPSO-solubilized membrane fractions, recombinant substrates, Aβ ELISA); format: biochemical; settings: cell-free γ-secretase assay, FIG. 15 (100 μM in A)
Procedure: (A) CHAPSO-solubilized membrane fractions were incubated with recombinant γ-secretase substrates together with the indicated compounds (at 100 μM) and the levels of Aβ42 and Aβ40 were determined by ELISA as described (27-29). (B) Dose-response of Aβ40 and Aβ42-lowering activity of Rk1 and (20S)Rg3 in a cell-free γ-secretase assay.
Next, the inhibitory effects of Rk1 and (20S)Rg3 on Aβ generation in an in vitro γ-secretase assay was studied. […] In contrast, naproxen, an NSAID without Aβ42-lowering activity, had no effects on Aβ42 production (FIG. 15A).

[5] = target: T1, γ-secretase cleavage of APP (AICD) (Homo sapiens, UniProt P49768); assay: Cell-free generation of AICD from membrane fractions of 293 cells overexpressing APP; format: biochemical
T1 construct: Membrane fractions isolated from 293 cells overexpressing either APP (A), Notch-AE (B) or p75-AE (C); endogenous in cells; host or cells: 293 cells (membrane fractions); only the substrates APP, Notch-ΔE and p75-ΔE are overexpressed
Procedure: (§1) Membrane fractions isolated from 293 cells overexpressing either APP (A), Notch-AE (B) or p75-AE (C) and incubated in the presence of indicated compounds: Compound E (CpdE, general γ-secretase inhibitor), Rgk351, Rk1 and sulindac sulfide (SS).

[6] = target: T2, γ-secretase cleavage of p75 neurotrophin receptor (p75-ICD) (Homo sapiens, UniProt P49768); assay: Cell-free generation of p75-ICD from membrane fractions of 293 cells overexpressing p75-AE; format: biochemical
T2 construct: Membrane fractions isolated from 293 cells overexpressing either APP (A), Notch-AE (B) or p75-AE (C); endogenous in cells; host or cells: 293 cells (membrane fractions); only the substrates APP, Notch-ΔE and p75-ΔE are overexpressed
Procedure: as §1

[7] = target: T3, γ-secretase cleavage of Notch1 (NICD) (Homo sapiens, UniProt P49768); assay: Cell-free generation of NICD from membrane fractions of 293 cells overexpressing Notch-AE; format: biochemical
T3 construct: Membrane fractions isolated from 293 cells overexpressing either APP (A), Notch-AE (B) or p75-AE (C); endogenous in cells; host or cells: 293 cells (membrane fractions); only the substrates APP, Notch-ΔE and p75-ΔE are overexpressed
Procedure: as §1

SMILES: C=C(CCC=C(C)C)[C@H]1CC[C@]2(C)[C@@H]1[C@H](O)C[C@@H]1[C@@]3(C)CC[C@H](O)C(C)(C)[C@@H]3[C@@H](O[C@@H]3O[C@H](CO)[C@@H](O)[C@H](O)[C@H]3O)C[C@]12C [Rk3]
- Aβ42-lowering activity [1]: No

SMILES: CC(C)=CCC[C@](C)(O)[C@H]1CC[C@]2(C)[C@@H]1[C@H](O)C[C@@H]1[C@@]3(C)CC[C@H](O)C(C)(C)[C@@H]3CC[C@]12C [PPD, 20(S)-protopanaxadiol]
- inhibitory effects on Aβ40 generation [2]: did not confer any inhibitory effects
- inhibitory effects on Aβ42 generation [2]: did not confer any inhibitory effects
- Aβ42-lowering activity [1]: No

SMILES: CC(C)=CCC[C@](C)(O)[C@H]1CC[C@]2(C)[C@@H]1[C@H](O)C[C@@H]1[C@@]3(C)CC[C@H](O)C(C)(C)[C@@H]3[C@@H](O[C@@H]3O[C@H](CO)[C@@H](O)[C@H](O)[C@H]3O)C[C@]12C [Rh1]
- secretion of Aβ42 [3]: not significant; also recorded: not affected
- Aβ42-lowering activity [1]: No

SMILES: CC1(C)CCC[C@](C)([C@H]2CC[C@]3(C)[C@@H]2[C@H](O)C[C@@H]2[C@@]4(C)CC[C@H](O)C(C)(C)[C@@H]4CC[C@]23C)O1 [PD, 20(S)-panaxadiol]
- inhibitory effects on Aβ40 generation [2]: did not confer any inhibitory effects
- inhibitory effects on Aβ42 generation [2]: did not confer any inhibitory effects

SMILES: CC(C)=CCCC(C)(O)C1CCC2(C)C1C(O)CC1C3(C)CCC(OC4OC(CO)C(O)C(O)C4OC4OC(CO)C(O)C(O)C4O)C(C)(C)C3CCC12C [(20R)Rg3]
- potency of Aβ42-reducing activity (rank) [3]: Rk1>/=(20S)Rg3>Rg5>(20R)Rg3
- secretion of Aβ42 [3]: not affected
- generation of Aβ42 (Aβ42 levels in the medium, ELISA, normalized to intracellular full-length APP) ([1]; 50 μg/ml, 8 hrs, FIG. 4): reduce the generation of Aβ42
- Aβ42-lowering activity [1]: Yes

SMILES: CC(C)=CCC[C@](C)(O[C@@H]1O[C@H](CO)[C@@H](O)[C@H](O)[C@H]1O)[C@H]1CC[C@]2(C)[C@@H]1[C@H](O)C[C@@H]1[C@@]3(C)CC[C@H](O)C(C)(C)[C@@H]3[C@@H](O[C@@H]3O[C@H](CO)[C@@H](O)[C@H](O)[C@H]3O)C[C@]12C [Rg1]
- inhibitory effects on Aβ40 production [1]: None
- inhibitory effects on Aβ42 production [1]: None
- Aβ42-lowering activity [1]: No
- amyloid-reducing activity in vitro [4]: no amyloid-reducing activity in vitro

SMILES: CC(C)=CCC[C@](C)(O[C@@H]1O[C@H](CO[C@@H]2O[C@H](CO)[C@@H](O)[C@H](O)[C@H]2O)[C@@H](O)[C@H](O)[C@H]1O)[C@H]1CC[C@]2(C)[C@@H]1[C@H](O)C[C@@H]1[C@@]3(C)CC[C@H](O[C@@H]4O[C@H](CO)[C@@H](O)[C@H](O)[C@H]4O[C@@H]4O[C@H](CO)[C@@H](O)[C@H](O)[C@H]4O)C(C)(C)[C@@H]3CC[C@]12C [Rb1]
- inhibitory effects on Aβ40 production [1]: None
- inhibitory effects on Aβ42 production [1]: None
- Aβ42-lowering activity [1]: No

SMILES: CC(C)=CCC[C@](C)(O)[C@H]1CC[C@]2(C)[C@@H]1[C@H](O)C[C@@H]1[C@@]3(C)CC[C@H](O)C(C)(C)[C@@H]3[C@@H](O)C[C@]12C [PPT, 20(S)-protopanaxatriol]
- levels of Aβ42 [2]: without affecting
- production of Aβ42 [2]: reduced the production of Aβ42
- levels of Aβ42 [1]: without affecting
- production of Aβ42 [1]: reduced the production of Aβ42
- Aβ42-lowering activity [1]: Yes

SMILES: CC(C)=CC/C=C(\C)[C@H]1CC[C@]2(C)[C@@H]1[C@H](O)C[C@@H]1[C@@]3(C)CC[C@H](O)C(C)(C)[C@@H]3[C@@H](O[C@@H]3O[C@H](CO)[C@@H](O)[C@H](O)[C@H]3O)C[C@]12C [Rh4]
- Aβ42-lowering activity [1]: No

SMILES: CC1(C)CCC[C@](C)([C@H]2CC[C@]3(C)[C@@H]2[C@H](O)C[C@@H]2[C@@]4(C)CC[C@H](O)C(C)(C)[C@@H]4[C@@H](O)C[C@]23C)O1 [PT, 20(S)-panaxatriol]
- levels of Aβ42 [2]: without affecting
- production of Aβ42 [2]: reduced the production of Aβ42
- levels of Aβ42 [1]: without affecting
- production of Aβ42 [1]: reduced the production of Aβ42

SMILES: COc1ccc2cc([C@H](C)C(=O)O)ccc2c1 [naproxen, reference compound]
- Aβ42 generation in vitro (γ-secretase): no effects

SMILES: CC(C)=CCC[C@](C)(O[C@@H]1O[C@H](CO[C@@H]2OC[C@H](O)[C@H](O)[C@H]2O)[C@@H](O)[C@H](O)[C@H]1O)[C@H]1CC[C@]2(C)[C@@H]1[C@H](O)C[C@@H]1[C@@]3(C)CC[C@H](O[C@@H]4O[C@H](CO)[C@@H](O)[C@H](O)[C@H]4O[C@@H]4O[C@H](CO)[C@@H](O)[C@H](O)[C@H]4O)C(C)(C)[C@@H]3CC[C@]12C [Rb2]
- inhibitory effects on Aβ40 production [1]: None
- inhibitory effects on Aβ42 production [1]: None
- Aβ42-lowering activity [1]: No

SMILES: C[C@H](NC(=O)Cc1cc(F)cc(F)c1)C(=O)N[C@H]1N=C(c2ccccc2)c2ccccc2N(C)C1=O [Compound E]
- cell-free generation of AICD [5]: efficiently inhibited
- cell-free generation of AICD ([5]; listed as Cpd.E): Very low amounts
- cell-free generation of p75-ICD [6]: efficiently inhibited
- cell-free generation of p75-ICD ([6]; listed as Cpd.E): Very low amounts
- cell-free generation of NICD [7]: efficiently inhibited
- cell-free generation of NICD ([7]; listed as Cpd.E): Very low amounts

SMILES: CC(C)=CCC[C@](C)(O)[C@H]1CC[C@]2(C)[C@@H]1[C@H](O)C[C@@H]1[C@@]3(C)CC[C@H](O)C(C)(C)[C@@H]3[C@@H](O[C@@H]3O[C@H](CO)[C@@H](O)[C@H](O)[C@H]3O[C@@H]3O[C@@H](C)[C@H](O)[C@@H](O)[C@H]3O)C[C@]12C [Rg2]
- inhibitory effects on Aβ40 production [1]: None
- inhibitory effects on Aβ42 production [1]: None
- Aβ42-lowering activity [1]: No

SMILES: CC(C)=CCC[C@](C)(O[C@@H]1O[C@H](CO[C@@H]2OC[C@@H](O)[C@H](O)[C@H]2O)[C@@H](O)[C@H](O)[C@H]1O)[C@H]1CC[C@]2(C)[C@@H]1[C@H](O)C[C@@H]1[C@@]3(C)CC[C@H](O[C@@H]4O[C@H](CO)[C@@H](O)[C@H](O)[C@H]4O[C@@H]4O[C@H](CO)[C@@H](O)[C@H](O)[C@H]4O)C(C)(C)[C@@H]3CC[C@]12C [Rb3]
- Aβ42-lowering activity [1]: No
